# Data from patent US20070299029A1, “Hepatic stellate cell specific promoter and uses thereof” (Agency for Science, Technology and Research, priority 2005, published 2007).
# Like-named read-outs stand apart in the source and are kept apart here.
# Legend:
# GFAP-lacZ transgene = test: chemiluminescent β-galactosidase activity assay of GFAP-lacZ transgene expression in T6/GFAP-lacZ cells; assay type: cell-based, rat
# Experimental: (§1) Cells were initially seeded in 12-well plates in DMEM supplemented with 10% FBS and weaned to a low serum DMEM (0.5% FBS) at a confluence of 70-80% for 12 hours of adaptation. Cells were then incubated with different concentrations of compounds for various amounts of time before being assayed for β-galactosidase activity and GFAP mRNA. For compound attenuation studies, cells were treated with a pro-fibrotic cytokine (TGF-β1 or PDGF-BB) either sequentially or concurrently with a compound (EGCG or genistein). In the sequential scheme, cells were first treated with a cytokine for 1-3 days, then the cytokine-containing culture medium was replaced with a fresh medium containing a particular compound only for various times. Details of the cytokine/compound treatments can be found in the individual figure legends.
# (§2) A lacZ reporter assay kit for cell staining (InvivoGen, CA, USA) was used to detect the reporter gene activity in T6/GFAP-lacZ cells treated with EGCG or genistein. The staining results were documented with a digital camera (DP12) attached to an Olympus inverted bright field microscope (IX51) after development for 60 min. For quantification, the β-galactosidase activity in cell extracts was measured using a chemiluminescent assay kit (Roche, Mannheim, Germany) in a 96-well plate format, according to the manufacturer's instructions. Briefly, cells were washed twice with ice-cold 1×PBS (pH 7.4), lysed for 30 minutes at room temperature with the lysis buffer, and supernatant was collected for assays. Protein concentration was determined with a BCA protein assay kit (Pierce, Ill., USA). Specific β-galactosidase activity was obtained by normalizing against total cellular protein content.
# endogenous rat GFAP mRNA = test: real-time RT-PCR for endogenous rat GFAP mRNA in T6/GFAP-lacZ cells; assay type: cell-based
# Experimental: as §1
# Total RNA was reverse-transcribed to cDNA using Taqman's reverse transcription reagent (Applied Biosystems, CA, USA). A total of 200 ng of RNA in 7.7 μl of nuclease-free water was added to 2 μl 10× reverse transcriptase buffer, 4.4 μl 25 mM magnesium chloride, 4 μl deoxyNTP mixtures, 1 μl random hexamers, 0.4 μl RNase inhibitor and 0.5 μl reverse transcriptase (50 U/μl) in a final reaction volume of 20 μl. The reaction was performed for 10 min at 25° C. (annealing), 30 min at 48° C. (cDNA synthesis) and 5 min at 95° C. (enzyme denaturation).
# Real-time quantitative PCR was carried out with an ABI 7500 Fast Real-time PCR System (Applied Biosystems, CA, USA). Two micro liters of sample cDNA were used in each PCR reaction, with β-actin gene as a reference for normalization. The primers and probes for rat β-actin and GFAP were ordered from Taqman's assay-on-demand database. The PCR reaction was performed under a default profile consisting of 95° C. for 20 seconds (enzyme denaturation) and 40 cycles of amplification (denaturation 3 seconds, annealing and extension 30 seconds). Some of the real-time RT-PCR reactions were separated on an agarose gel for visual confirmation of discrete products (data not shown).
# Relative quantitation of the target mRNA was calculated using the comparative threshold cycle (CT) methods as described in the User Bulletin #2 (ABI Prism 7700 Sequence Detection System). CT indicates the fractional cycle number at which the amount of amplified target reaches a fixed threshold within the linear phase of gene amplification. ΔCT, which reflects the difference between CT target and CT β-actin, is inversely correlated to the abundance of mRNA transcripts in the samples. ACT for each sample was normalized against control experiment or calibrator and expressed as ΔΔCT. Relative quantitation is given by 2^−ΔΔCT to express the up-regulation or down-regulation of the target gene under the treatments compared to the control.
# T6/GFAP-lacZ cells [1] = test: X-gal stained images of T6/GFAP-lacZ cells (cell number); assay type: cell-based, rat; conditions: 24 hours, low serum (0.5% FBS) DMEM
# Experimental: FIG. 15 depicts X-gal staining of T6/GFAP-lacZ cells. Incubation with A) DMSO vehicle control; B) 25 μM EGCG; and C) 40 μM genistein in a low serum DMEM for 24 hours. Images were captured after 60 min of X-gal staining;
# as §2
# EGCG is a major catechin from green tea leaves associated with a wide range of beneficial activities including anti-oxidation, anti-inflammation and anti-fibrosis, whereas genistein is a major flavonoid found abundantly in soy bean with anti-tumor and pro-apoptotic activities. […]
# T6/GFAP-lacZ cells [2] = test: tetrazolium-based proliferation assay of T6/GFAP-lacZ cells; assay type: cell-based, rat; conditions: 48 hours, low serum (0.5% FBS) medium, read-out: IC50 of proliferation inhibition
# Experimental: FIG. 14 illustrates that EGCG and genistein suppressed proliferation of the T6/GFAP-lacZ cells. Cells were grown in full medium to 70-80% confluence in 96-well plates, followed by compound treatment of various concentrations (0-40 μM) in a low serum medium for 48 hours before assaying for proliferation. Signal was normalized against vehicle treatment (0 μM compound). Data was obtained from three independent experiments and presented as mean ±SE.
# However our genistein IC50 value for the T6/GFAP-lacZ cells was three times lower than that for the T6 cells cultured in DMEM containing 10% FBS (Kang et al., (2001) supra). Our additional data also confirmed that no significant difference in IC50 value was observed between the T6 and the T6/GFAP-lacZ cells (data not shown).
# [3] = Yang et al. (1998); cited from earlier work
smiles,measurement,setting,value
O=c1c(-c2ccc(O)cc2)coc2cc(O)cc(O)c12 [genistein],"GFAP-lacZ transgene expression (β-galactosidase activity), % of the control","GFAP-lacZ transgene; 40 μM genistein, 24 hours (largest suppression)",65%
same,"PDGF-BB-induced GFAP-lacZ, % of PDGF-BB-alone control","GFAP-lacZ transgene; concurrent: 40 μM genistein and 10 ng/ml PDGF-BB, 72 hours",48%
same,"β-galactosidase activity, % of the TGF-β1-alone control","GFAP-lacZ transgene; concurrent: 40 μM genistein and 10 ng/ml TGF-β1, 48 hours",43%
same,"PDGF-BB-induced GFAP-lacZ, % of PDGF-BB-alone control","GFAP-lacZ transgene; sequential: 10 ng/ml PDGF-BB 48 hours, then 40 μM genistein 24 hours",79%
same,suppressing effect on TGF-β1-induced β-galactosidase activity,"GFAP-lacZ transgene; sequential: 10 ng/ml TGF-β1 24 hours, then 40 μM genistein 24 hours",negligible
same,effect on endogenous GFAP mRNA,"endogenous rat GFAP mRNA; 10 μM genistein, time course 0-72 hours","less predictable, ranging from suppression at 24 hours to induction at 72 hours"
same,"endogenous GFAP mRNA, % of the control","endogenous rat GFAP mRNA; 20 μM genistein, 8 hours",23%
same,"endogenous GFAP mRNA, % of the control","endogenous rat GFAP mRNA; 20 μM genistein, 72 hours",43%
same,"TGF-β1-induced GFAP transcription, % of the control","endogenous rat GFAP mRNA; concurrent: 20 μM genistein and 1 ng/ml TGF-β1, 56 hours",14%
same,"endogenous GFAP transcription, % of the PDGF-BB-alone control","endogenous rat GFAP mRNA; concurrent: 20 μM genistein and 10 ng/ml PDGF, 48 hours",6%
same,reliable inhibitory concentration for GFAP mRNA,"endogenous rat GFAP mRNA; genistein dose experiment, 48 hours",higher than 10 μM
same,"TGF-β1-induced GFAP transcription, % of the control","endogenous rat GFAP mRNA; sequential: 1 ng/ml TGF-β1 48 hours, then 20 μM genistein 8 hours",26%
same,"endogenous GFAP transcription, % of the PDGF-BB-alone control","endogenous rat GFAP mRNA; sequential: 10 ng/ml PDGF 24 hours, then 20 μM genistein 24 hours",8.6%
same,proliferation inhibition (fewer cells than control),T6/GFAP-lacZ cells [1]; 40 μM genistein,significant proliferation inhibition
same,IC50,T6/GFAP-lacZ cells [2]; Rattus norvegicus,25 µM
"O=C(O[C@@H]1Cc2c(O)cc(O)cc2O[C@@H]1c1cc(O)c(O)c(O)c1)c1cc(O)c(O)c(O)c1 [EGCG, epigallocatechin gallate]",half-life in human plasma,[3],about 5 hours
same,"PDGF-induced GFAP-lacZ elevation, % of the transgenic control","GFAP-lacZ transgene; 10 ng/ml PDGF-BB, incubation with 10 μM of EGCG for two days",60%
same,"GFAP-lacZ transgene expression (β-galactosidase activity), % of the control","GFAP-lacZ transgene; 5 μM EGCG, 2 hours",82%
same,"GFAP-lacZ transgene expression (β-galactosidase activity), % of the control","GFAP-lacZ transgene; 20 μM EGCG, 2 hours",55%
same,"GFAP-lacZ transgene expression (β-galactosidase activity), % of the control level","GFAP-lacZ transgene; 20 μM EGCG, 4 hours",73%
same,inhibitory effect on GFAP-lacZ transgene expression,"GFAP-lacZ transgene; EGCG all dosages (up to 20 μM), 24 hours",completely abolished
same,"β-galactosidase activity, % of TGF-β1-alone control",GFAP-lacZ transgene; concurrent: 10 ng/ml TGF-β1 with 20 μM EGCG 26 hours,66%
same,"β-galactosidase activity, % of TGF-β1-alone control","GFAP-lacZ transgene; sequential: 10 ng/ml TGF-β1 24 hours, then 20 μM EGCG 2 hours, not statistically significant",87%
same,"PDGF-induced GFAP elevation, % of the endogenous control","endogenous rat GFAP mRNA; 10 ng/ml PDGF, incubation with 10 μM of EGCG for two days",8%
same,"GFAP transcription, % of the control level","endogenous rat GFAP mRNA; 130 nM EGCG, 48 hours",34%
same,"endogenous GFAP mRNA, % of the control","endogenous rat GFAP mRNA; 10 μM EGCG, 24 hours (maximum suppression)",39%
same,GFAP transcription at increasing dosages,"endogenous rat GFAP mRNA; EGCG dosages above 130 nM up to 20 μM, 48 hours",no further suppression
same,"endogenous GFAP mRNA, % of TGF-β1-alone control","endogenous rat GFAP mRNA; concurrent: 1 ng/ml TGF-β1 with 5 μM EGCG, 56 hours",29%
same,"endogenous GFAP mRNA, % of TGF-β1-alone control","endogenous rat GFAP mRNA; sequential: 1 ng/ml TGF-β1 48 hours, then 5 μM EGCG 8 hours",45%
same,proliferation inhibition (fewer cells than control),T6/GFAP-lacZ cells [1]; 25 μM EGCG,significant proliferation inhibition
same,IC50,T6/GFAP-lacZ cells [2],31 µM
